Converted amounts (≈) assume the structure as drawn.
Assays:
[1] = system: Pseudomonas aeruginosa 12-4-4; assay: In vitro MIC, agar dilution, Pseudomonas aeruginosa 12-4-4; format: cell-based; conditions: 1244; Pseudomonas aeruginosa 12-4-4; agar dilution, 35° C., 18 hours, nutrient agar; read-out: Minimal Inhibitory Concentration
Method in brief: (§1)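 Incubation ran for 18 hours at 35° C. in nutrient agar under the standard agar dilution method, with minimal inhibitory concentration recorded.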

[2] = system: Escherichia coli 311; assay: In vitro MIC, agar dilution, Escherichia coli 311; format: cell-based; conditions: 35° C., 18 hours, nutrient agar, read-out: Minimal Inhibitory Concentration
Method in brief: as §1

[3] = system: Klebsiella pneumoniae AD; assay: In vitro MIC, agar dilution, Klebsiella pneumoniae AD; format: cell-based; conditions: Klebsiella pneumoniae AD; agar dilution, 35° C., 18 hours, nutrient agar; read-out: Minimal Inhibitory Concentration
Method in brief: as §1

[4] = system: Escherichia coli ESS22-31; assay: In vitro MIC, agar dilution, Escherichia coli ESS22-31; format: cell-based; conditions: ESS2231; Escherichia coli ESS22-31; agar dilution, 35° C., 18 hours, nutrient agar; read-out: Minimal Inhibitory Concentration
Method in brief: as §1

[5] = system: Staphylococcus aureus Q74-6; assay: In vitro MIC, agar dilution, Staphylococcus aureus Q74-6; format: cell-based; conditions: Q746; Staphylococcus aureus Q74-6; agar dilution, 35° C., 18 hours, nutrient agar; read-out: Minimal Inhibitory Concentration
Method in brief: as §1

[6] = system: Serratia marcens QHC77-2; assay: In vitro MIC, agar dilution, Serratia marcens QHC77-2; format: cell-based; conditions: QHC772; Serratia marcens QHC77-2; agar dilution, 35° C., 18 hours, nutrient agar; read-out: Minimal Inhibitory Concentration
Method in brief: as §1

[7] = system: Proteus vulgaris N74-1; assay: In vitro MIC, agar dilution, Proteus vulgaris N74-1; format: cell-based; conditions: N741, 35° C., 18 hours, nutrient agar, read-out: Minimal Inhibitory Concentration
Method in brief: as §1

[8] = system: Klebsiella pneumoniae UR76-1; assay: In vitro MIC, agar dilution, Klebsiella pneumoniae UR76-1; format: cell-based; conditions: UR761; Klebsiella pneumoniae UR76-1; agar dilution, 35° C., 18 hours, nutrient agar; read-out: Minimal Inhibitory Concentration
Method in brief: as §1

[9] = system: Klebsiella pneumoniae W-75-2; assay: In vivo systemic lethal infection of mice, Klebsiella pneumoniae W-75-2; parameters: species or system Charles River CD-1 mice; conditions: CD-1 mice
Source text: (§2) As shown in Table II these compounds show high in vivo antibacterial activity against Escherichia coli 311 and Klebsiella pneumoniae W-75-2 when administered by a single subcutaneous dose to groups of Charles River CD-1 mice, weighing about 20 g. each. The mice are infected intraperitoneally with a lethal dose of these bacteria.

[10] = system: Klebsiella pneumoniae W75-2; assay: In vitro MIC, agar dilution, Klebsiella pneumoniae W75-2; format: cell-based; conditions: W752; Klebsiella pneumoniae W75-2; agar dilution, 35° C., 18 hours, nutrient agar; read-out: Minimal Inhibitory Concentration
Method in brief: as §1

[11] = system: Escherichia coli 311; assay: In vivo systemic lethal infection of mice, Escherichia coli 311; parameters: species or system Charles River CD-1 mice; conditions: CD-1 mice
Source text: as §2

[12] = system: Klebsiella pneumoniae W75-4; assay: In vitro MIC, agar dilution, Klebsiella pneumoniae W75-4; format: cell-based; conditions: W754; Klebsiella pneumoniae W75-4; agar dilution, 35° C., 18 hours, nutrient agar; read-out: Minimal Inhibitory Concentration
Method in brief: as §1

[13] = system: Pseudomonas aeruginosa PD05141; assay: In vitro MIC, agar dilution, Pseudomonas aeruginosa PD05141; format: cell-based; conditions: Pseudomonas aeruginosa, PD05141, 18 h, read-out: Minimal Inhibitory Concentration
Method in brief: as §1

[14] = system: Proteus morganii K72; assay: In vitro MIC, agar dilution, Proteus morganii K72; format: cell-based; conditions: Morganella morganii; Proteus morganii K72; agar dilution, 35° C., 18 hours, nutrient agar; read-out: Minimal Inhibitory Concentration
Method in brief: as §1

[15] = system: Escherichia coli W75-1; assay: In vitro MIC, agar dilution, Escherichia coli W75-1; format: cell-based; conditions: W751, 35° C., 18 hours, nutrient agar, read-out: Minimal Inhibitory Concentration
Method in brief: as §1

[16] = system: Klebsiella pneumoniae MA75-1; assay: In vitro MIC, agar dilution, Klebsiella pneumoniae MA75-1; format: cell-based; conditions: MA751; Klebsiella pneumoniae MA75-1; agar dilution, 35° C., 18 hours, nutrient agar; read-out: Minimal Inhibitory Concentration
Method in brief: as §1

[17] = system: Serratia marcens K77-1; assay: In vitro MIC, agar dilution, Serratia marcens K77-1; format: cell-based; conditions: K771; Serratia marcens K77-1; agar dilution, 35° C., 18 hours, nutrient agar; read-out: Minimal Inhibitory Concentration
Method in brief: as §1

[18] = system: Enterobacter cloacae OSU75-2; assay: In vitro MIC, agar dilution, Enterobacter cloacae OSU75-2; format: cell-based; conditions: OSU752; Enterobacter cloacae OSU75-2; agar dilution, 35° C., 18 hours, nutrient agar; read-out: Minimal Inhibitory Concentration
Method in brief: as §1

[19] = system: Enterobacter aerogenes UR76-3; assay: In vitro MIC, agar dilution, Enterobacter aerogenes UR76-3; format: cell-based; conditions: Klebsiella aerogenes, UR763; Enterobacter aerogenes UR76-3; agar dilution, 35° C., 18 hours, nutrient agar; read-out: Minimal Inhibitory Concentration
Method in brief: as §1

[20] = system: Enterococcus SM77-15; assay: In vitro MIC, agar dilution, Enterococcus SM77-15; format: cell-based; conditions: SM7715; Enterococcus SM77-15; agar dilution, 35° C., 18 hours, nutrient agar; read-out: Minimal Inhibitory Concentration
Method in brief: as §1

[21] = system: Pseudomonas aeruginosa UCS 76-13; assay: In vitro MIC, agar dilution, Pseudomonas aeruginosa UCS 76-13; format: cell-based; conditions: UCS7613; Pseudomonas aeruginosa UCS 76-13; agar dilution, 35° C., 18 hours, nutrient agar; read-out: Minimal Inhibitory Concentration
Method in brief: as §1

[22] = system: Serratia K101; assay: In vitro MIC, agar dilution, Serratia K101; format: cell-based; conditions: Serratia K101; agar dilution, 35° C., 18 hours, nutrient agar; read-out: Minimal Inhibitory Concentration
Method in brief: as §1

[23] = system: Staphylococcus aureus Q74-1; assay: In vitro MIC, agar dilution, Staphylococcus aureus Q74-1; format: cell-based; conditions: Q741; Staphylococcus aureus Q74-1; agar dilution, 35° C., 18 hours, nutrient agar; read-out: Minimal Inhibitory Concentration
Method in brief: as §1

[24] = system: Escherichia coli OSU75-1; assay: In vitro MIC, agar dilution, Escherichia coli OSU75-1; format: cell-based; conditions: OSU751, 35° C., 18 hours, nutrient agar, read-out: Minimal Inhibitory Concentration
Method in brief: as §1

[25] = system: Enterobacter cloacae MA75-1; assay: In vitro MIC, agar dilution, Enterobacter cloacae MA75-1; format: cell-based; conditions: MA751; Enterobacter cloacae MA75-1; agar dilution, 35° C., 18 hours, nutrient agar; read-out: Minimal Inhibitory Concentration
Method in brief: as §1

[26] = system: Pseudomonas aeruginosa G236; assay: In vitro MIC, agar dilution, Pseudomonas aeruginosa G236; format: cell-based; conditions: Pseudomonas aeruginosa G236; agar dilution, 35° C., 18 hours, nutrient agar; read-out: Minimal Inhibitory Concentration
Method in brief: as §1

[27] = system: Proteus rettgeri N76-1; assay: In vitro MIC, agar dilution, Proteus rettgeri N76-1; format: cell-based; conditions: Providencia rettgeri, N761; Proteus rettgeri N76-1; agar dilution, 35° C., 18 hours, nutrient agar; read-out: Minimal Inhibitory Concentration
Method in brief: as §1

[28] = single subcutaneous dose 0.12 mg./kg.
[29] = single subcutaneous dose 0.25 mg./kg.
[30] = single subcutaneous dose 0.5 mg./kg.

## CO/N=C(\C(=O)NC1C(=O)N2C(C(=O)O)=C(CSc3nnc(-n4cccn4)n3N)CSC12)c1csc(N)n1 (stereo not drawn) [Compound I, 7-[2-(Syn-methoxyimino)-2-(2-aminothiazol-4-yl)acetamido]-3-[4-amino-5-(1-pyrazolyl)-1,2,4-triazol-3-ylthiomethyl]-3-cephem-4-carboxylic acid]
[1]
  MIC: 64 µg/mL (≈ 111 µM)
[2]
  MIC: ≤ 0.12 µg/mL
[3]
  MIC: ≤ 0.12 µg/mL
[4]
  MIC: ≤ 0.12 µg/mL
[5]
  MIC: 64 µg/mL (≈ 111 µM)
[6]
  MIC: 1 µg/mL (≈ 1.73 µM)
[7]
  MIC: ≤ 0.12 µg/mL
[8]
  MIC: 0.5 µg/mL (≈ 0.866 µM)
[9]; single subcutaneous dose 0.06 mg./kg.
  Alive/Total Mice Tested, 7 Days After Infection: 1/20
[9]; [28]
  Alive/Total Mice Tested, 7 Days After Infection: 2/20
[9]; [29]
  Alive/Total Mice Tested, 7 Days After Infection: 14/20
[9]; [30]
  Alive/Total Mice Tested, 7 Days After Infection: 19/20
[10]
  MIC: ≤ 0.12 µg/mL
[11]; [28]
  Alive/Total Mice Tested, 7 Days After Infection: 1/20
[11]; [29]
  Alive/Total Mice Tested, 7 Days After Infection: 6/20
[11]; [30]
  Alive/Total Mice Tested, 7 Days After Infection: 15/20
[11]; single subcutaneous dose 1 mg./kg.
  Alive/Total Mice Tested, 7 Days After Infection: 19/20
[12]
  MIC: ≤ 0.12 µg/mL
[13]
  MIC: 128 µg/mL (≈ 222 µM)
[14]
  MIC: ≤ 0.12 µg/mL
[15]
  MIC: ≤ 0.12 µg/mL
[16]
  MIC: ≤ 0.12 µg/mL
[17]
  MIC: 0.5 µg/mL (≈ 0.866 µM)
[18]
  MIC: 0.5 µg/mL (≈ 0.866 µM)
[19]
  MIC: ≤ 0.12 µg/mL
[20]
  MIC: > 128 µg/mL
[21]
  MIC: 128 µg/mL (≈ 222 µM)
[22]
  MIC: 0.5 µg/mL (≈ 0.866 µM)
[23]
  MIC: 2 µg/mL (≈ 3.46 µM)
[24]
  MIC: ≤ 0.12 µg/mL
[25]
  MIC: 128 µg/mL (≈ 222 µM)
[26]
  MIC: 64 µg/mL (≈ 111 µM)
[27]
  MIC: ≤ 0.12 µg/mL

Reference: patent US4336375A, “Cephalosporanic acid derivatives” (American Cyanamid Company, priority 1980, dated 1982)
